# Data: US20170232083A1, “METHODS OF DIAGNOSIS AND TREATMENT OF CELIAC DISEASE IN CHILDREN” (priority 2014, published 2017)
# Test system: PBMC (polyclonal gluten-specific T cells) of paediatric and adult CD patients
# Assay: IFN-γ ELISpot of PBMC after 3 day oral wheat challenge (SFU, % of maximal peptide response, dominance scores, EC50; Examples 5-6)
# Assay type: cell-based, human
# Conditions: for Cross-reactive T cell response: following wheat challenge; for IFN-γ ELISpot response: after oral wheat challenge
# [1] = subject I (3-5yrs/6-10yrs part)
# [2] = subject J (3-5yrs/6-10yrs part)
# [3] = subject K (3-5yrs/6-10yrs part)
# [4] = subject V (3-5yrs/6-10yrs part)
# [5] = subject W (3-5yrs/6-10yrs part)
# [6] = subject Y (3-5yrs/6-10yrs part)
# [7] = subject five (3-5yrs/6-10yrs part)
# [8] = subject seven (3-5yrs/6-10yrs part)
# [9] = subject six (3-5yrs/6-10yrs part)
# [10] = subject ten (3-5yrs/6-10yrs part)
# [11] = subject two (3-5yrs/6-10yrs part)
sequence,measurement,setting,value
NPLQPEQPFPLQPQPP,Cross-reactive T cell response,"subject A, 11-17yrs",3 SFU
same,Significant response as a percentage of maximal peptide SFU,"subject D, 11-17yrs",′′ (21-40% = ′′)
same,Cross-reactive T cell response,"subject D, 11-17yrs",12 SFU
same,Significant response as a percentage of maximal peptide SFU,"subject E, 11-17yrs",(6-10% - ^)
same,Cross-reactive T cell response,"subject E, 11-17yrs",21 SFU
same,Significant response as a percentage of maximal peptide SFU,"subject F, 11-17yrs",′ (11-20% = ′)
same,Cross-reactive T cell response,"subject F, 11-17yrs",25 SFU
same,Cross-reactive T cell response,"subject G, 11-17yrs",1 SFU
same,Significant response as a percentage of maximal peptide SFU,"subject H, 11-17yrs",+ (>70% = +)
same,Cross-reactive T cell response,subject H,14 SFU
same,Cross-reactive T cell response,[1],1 SFU
same,Significant response as a percentage of maximal peptide SFU,subject J,′ (11-20% = ′)
same,Cross-reactive T cell response,[2],38 SFU
same,Significant response as a percentage of maximal peptide SFU,subject K,′′ (21-40% = ′′)
same,Cross-reactive T cell response,[3],19 SFU
same,Cross-reactive T cell response,"subject P, 11-17yrs",6 SFU
same,Significant response as a percentage of maximal peptide SFU,"subject Q, 11-17yrs",′′ (21-40% = ′′)
same,Cross-reactive T cell response,"subject Q, 11-17yrs",23 SFU
same,Significant response as a percentage of maximal peptide SFU,"subject T, 11-17yrs",′′ (21-40% = ′′)
same,Cross-reactive T cell response,"subject T, 11-17yrs",33 SFU
same,Cross-reactive T cell response,"subject U, 11-17yrs",9 SFU
same,Cross-reactive T cell response,[4],6 SFU
same,Cross-reactive T cell response,[5],7 SFU
same,Cross-reactive T cell response,[6],3 SFU
same,Significant response as a percentage of maximal peptide SFU,subject five,′′ (21-40% = ′′)
same,Cross-reactive T cell response,[7],14 SFU
same,Cross-reactive T cell response,"subject nine, 11-17yrs",1 SFU
same,Cross-reactive T cell response,[8],4 SFU
same,Significant response as a percentage of maximal peptide SFU,subject six,+ (>70% = +)
same,Cross-reactive T cell response,[9],13 SFU
same,Significant response as a percentage of maximal peptide SFU,subject ten,+ (>70% = +)
same,Cross-reactive T cell response,[10],11 SFU
same,Significant response as a percentage of maximal peptide SFU,subject two,′ (11-20% = ′)
same,Cross-reactive T cell response,[11],10 SFU
PEQPFPEQPEQPF,IFN-γ ELISpot response,"patient A, 11-17 yrs, cut-off 10 SFU",2 SFU
same,IFN-γ ELISpot response,"patient E, H, 11-17 yrs, cut-off 10 SFU",14 SFU
same,Significant response as percentage of maximal peptide SFU,"patient E, max peptide 224 SFU",(6-10% = ^)
same,IFN-γ ELISpot response,"patient F, 11-17 yrs, cut-off 10 SFU",2 SFU
same,IFN-γ ELISpot response,"patient G, 11-17 yrs, cut-off 10 SFU",2 SFU
same,IFN-γ ELISpot response,"patient H (HLA-DQ2.5 homozygote), 3-5yrs, cut-off 10 SFU",4 SFU
same,IFN-γ ELISpot response,"patient H, 11-17 yrs, cut-off 10 SFU",9 SFU
same,IFN-γ ELISpot response,"patient ID not given, 11-17 yrs, cut-off 10 SFU",15 SFU
same,Significant response as percentage of maximal peptide SFU,"patient ID not given, max peptide 95 SFU",′ (11-20% = ′)
same,Significant response as percentage of maximal peptide SFU,"patient J, max peptide 196 SFU",′ (11-20% = ′)
same,Significant response as percentage of maximal peptide SFU,"patient K, max peptide 53 SFU",′′ (21-40% = ′′)
same,IFN-γ ELISpot response,"patient N, 3-5yrs, cut-off 10 SFU",0 SFU
same,IFN-γ ELISpot response,"patient P, 11-17 yrs, cut-off 21.6 SFU",10 SFU
same,IFN-γ ELISpot response,"patient Q, 11-17 yrs, cut-off 10 SFU",11 SFU
same,Significant response as percentage of maximal peptide SFU,"patient Q, max peptide 97 SFU",′ (11-20% = ′)
same,IFN-γ ELISpot response,"patient U, H, 11-17 yrs, cut-off 10 SFU",5 SFU
same,IFN-γ ELISpot response,"patient V, 6-10 yrs, cut-off 10 SFU",3 SFU
same,IFN-γ ELISpot response,"patient Y, 6-10 yrs, cut-off 10 SFU",2 SFU
same,IFN-γ ELISpot response,"patient eleven, 6-10 yrs, cut-off 10 SFU",12 SFU
same,Significant response as percentage of maximal peptide SFU,"patient eleven, max peptide 57 SFU",′′ (21-40% = ′′)
same,IFN-γ ELISpot response,"patient four, 3-5yrs, cut-off 10 SFU",4 SFU
same,Significant response as percentage of maximal peptide SFU,"patient nine, max peptide 10 SFU",+ (>70% = +)
same,IFN-γ ELISpot response,"patient seven, 6-10 yrs, cut-off 10.5 SFU",5 SFU
same,IFN-γ ELISpot response,"patient ten, 3-5yrs, cut-off 10 SFU",11 SFU
same,Significant response as percentage of maximal peptide SFU,"patient ten, max peptide 14.5 SFU",+ (>70% = +)
same,IFN-γ ELISpot response,"patient three, 6-10 yrs, cut-off 10.5 SFU",24 SFU
same,IFN-γ ELISpot response,"patient twelve, 11-17 yrs, cut-off 10 SFU",1 SFU
same,IFN-γ ELISpot response,"patient two, 3-5yrs, cut-off 10 SFU",9 SFU
PEQPFPEQPQPYPQQP,Cross-reactive T cell response,"subject A, 11-17yrs",2 SFU
same,Cross-reactive T cell response,"subject D, 11-17yrs",2 SFU
same,Significant response as a percentage of maximal peptide SFU,"subject E, 11-17yrs",(6-10% - ^)
same,Cross-reactive T cell response,"subject E, 11-17yrs",13 SFU
same,Cross-reactive T cell response,"subject F, 11-17yrs",6 SFU
same,Cross-reactive T cell response,"subject G, 11-17yrs",2 SFU
same,Cross-reactive T cell response,subject H,6 SFU
same,Cross-reactive T cell response,[1],2 SFU
same,Significant response as a percentage of maximal peptide SFU,subject J,′ (11-20% = ′)
same,Cross-reactive T cell response,[2],36 SFU
same,Cross-reactive T cell response,[3],6 SFU
same,Cross-reactive T cell response,"subject P, 11-17yrs",10 SFU
same,Cross-reactive T cell response,"subject Q, 11-17yrs",2 SFU
same,Cross-reactive T cell response,"subject T, 11-17yrs",0 SFU
same,Cross-reactive T cell response,"subject U, 11-17yrs",1 SFU
same,Cross-reactive T cell response,[4],1 SFU
same,Cross-reactive T cell response,[5],9 SFU
same,Cross-reactive T cell response,[6],1 SFU
same,Cross-reactive T cell response,[7],1 SFU
same,Cross-reactive T cell response,"subject nine, 11-17yrs",1 SFU
same,Cross-reactive T cell response,[8],4 SFU
same,Cross-reactive T cell response,[9],5 SFU
same,Significant response as a percentage of maximal peptide SFU,subject ten,+ (>70% = +)
same,Cross-reactive T cell response,[10],12 SFU
same,Cross-reactive T cell response,[11],1 SFU
